Experimental data taken from the supplement of paper PMC10307832.

How the values were obtained:
Test in all cases: relative viability (nuclei count vs DMSO), 5 days (fraction); higher = more cells survive
XMD13-2 + Vorinostat = compound: C1CC1C(=O)NC2=NNC3=C2C=CC(=C3)C4=CC(=CC=C4)C(=O)NC5CC5 [XMD13-2] + O=C(CCCCCCC(=O)Nc1ccccc1)NO [Vorinostat] (partner 1 µM)
Summary of the method: (§1)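 Lung cancer cell lines were pin-tool dosed in 1536-well plates on the day after seeding, with either a lone drug or a fixed anchor-drug dose plus five library-drug doses (not always all listed) in √10 steps. Nuclei were counted on 4× images after 5 days. Relative viability is the ratio of treated-well to vehicle-well nuclei counts, with each value a median of duplicate plates.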

ALW-II-49-7 + Olaparib = compound: Cc1ccc(C(=O)Nc2cccc(C(F)(F)F)c2)cc1Nc1cncc(C(N)=O)c1 [ALW-II-49-7] + O=C(c1cc(Cc2n[nH]c(=O)c3ccccc23)ccc1F)N1CCN(C(=O)C2CC2)CC1 [Olaparib] (partner 8 µM)
Summary of the method: as §1

Dasatinib + Crizotinib = compound: Cc1nc(Nc2ncc(C(=O)Nc3c(C)cccc3Cl)s2)cc(N2CCN(CCO)CC2)n1 [Dasatinib] + C[C@@H](Oc1cc(-c2cnn(C3CCNCC3)c2)cnc1N)c1c(Cl)ccc(F)c1Cl [Crizotinib] (partner 1 µM)
Summary of the method: as §1

Dasatinib + Pemetrexed = compound: Cc1nc(Nc2ncc(C(=O)Nc3c(C)cccc3Cl)s2)cc(N2CCN(CCO)CC2)n1 [Dasatinib] + Nc1nc2[nH]cc(CCc3ccc(C(=O)N[C@@H](CCC(=O)O)C(=O)O)cc3)c2c(=O)[nH]1 [Pemetrexed] (partner 0.2 µM)
Summary of the method: as §1

UMC-11
relative viability (XMD13-2 + Vorinostat; first compound 0.05 µM): 0.356 | relative viability (XMD13-2 + Vorinostat; first compound 0.1581 µM): 0.413 | relative viability (XMD13-2 + Vorinostat; first compound 0.5 µM): 0.459 | relative viability (XMD13-2 + Vorinostat; first compound 1.581 µM): 0.396 | relative viability (XMD13-2 + Vorinostat; first compound 5 µM): 0.318 | relative viability (ALW-II-49-7 + Olaparib; first compound 0.08 µM): 0.428 | relative viability (ALW-II-49-7 + Olaparib; first compound 0.253 µM): 0.428 | relative viability (ALW-II-49-7 + Olaparib; first compound 0.8 µM): 0.413 | relative viability (ALW-II-49-7 + Olaparib; first compound 2.53 µM): 0.345 | relative viability (ALW-II-49-7 + Olaparib; first compound 8 µM): 0.342 | relative viability (Dasatinib + Crizotinib; first compound 0.005 µM): 0.537 | relative viability (Dasatinib + Crizotinib; first compound 0.01581 µM): 0.389 | relative viability (Dasatinib + Crizotinib; first compound 0.05 µM): 0.359 | relative viability (Dasatinib + Crizotinib; first compound 0.1581 µM): 0.258 | relative viability (Dasatinib + Crizotinib; first compound 0.5 µM): 0.242 | relative viability (Dasatinib + Pemetrexed; first compound 0.005 µM): 0.736 | relative viability (Dasatinib + Pemetrexed; first compound 0.01581 µM): 0.656 | relative viability (Dasatinib + Pemetrexed; first compound 0.05 µM): 0.593 | relative viability (Dasatinib + Pemetrexed; first compound 0.1581 µM): 0.469 | relative viability (Dasatinib + Pemetrexed; first compound 0.5 µM): 0.391
